Experimental findings from patent US20090087841A1, “METHODS AND COMPOSITIONS FOR D[…] HIV-1 TO PROTEASE INHIBITORS” (Monogram Biosciences, Inc., priority 2005, published 2009) are described below.

This test concerns HIV-1 viral population of patient sample 848. In words: Resistance test vector phenotypic drug susceptibility assay of patient sample 848. Type of test: cell-based. The note with it: mixed viral population in sample 848, FIG. 3. The source says: Patient-derived segment(s) corresponding to the HIV protease and reverse transcriptase coding regions were amplified by the reverse transcription-polymerase chain reaction method (RT-PCR) using viral RNA isolated from viral particles present in the plasma or serum of HIV-infected individuals as follows. Viral RNA was isolated from the plasma or serum using oligo-dT magnetic beads (Dynal Biotech, Oslo, Norway), followed by washing and elution of viral RNA. The RT-PCR protocol was divided into two steps. A retroviral reverse transcriptase (e.g. Moloney MuLV reverse transcriptase (Roche Molecular Systems, Inc., Branchburg, N.J.; Invitrogen, Carlsbad, Calif.), or avian myeloblastosis virus (AMV) reverse transcriptase (Roche Molecular Systems, Inc., Branchburg, N.J.), or) was used to copy viral RNA into cDNA. The cDNA was then amplified using a thermostable DNA polymerase (e.g. Taq (Roche Molecular Systems, Inc., Branchburg, N.J.), Tth (Roche Molecular Systems, Inc., Branchburg, N.J.), PRIMEZYME™ (isolated from Thermus brockianus, Biometra, Gottingen, Germany)) or a combination of thermostable polymerases as described for the performance of “long PCR” Barnes, W. M., 1994, Proc. Natl. Acad. Sci, USA 91, 2216-20) (e.g. Expand High Fidelity PCR System (Taq+Pwo), (Boehringer Mannheim. Indianapolis, Ind.); GENEAMP XL™ PCR kit (Tth+Vent), (Roche Molecular Systems, Inc., Branchburg, N.J.); or ADVANTAGE II®, Clontech, Palo Alto, Calif.)
Resistance test vectors incorporating the “test” patient-derived segments were constructed as described in U.S. Pat. No. 5,837,464 using an amplified DNA product of 1.5 kB prepared by RT-PCR using viral RNA as a template and oligonucleotides PDS Apa, PDS Age, PDS PCR6, Apa-gen, Apa-c, Apa-f, Age-gen, Age-a, RT-ad, RT-b, RT-c, RT-f, and/or RT-g as primers, followed by digestion with ApaI and AgeI or the isoschizomer PinA1. To ensure that the plasmid DNA corresponding to the resultant fitness test vector comprises a representative sample of the HIV viral quasi-species present in the serum of a given patient, many (>250) independent E. coli transformants obtained in the construction of a given fitness test vector are pooled and used for the preparation of plasmid DNA.
A packaging expression vector encoding an amphotrophic MuLV 4070A env gene product enables production in a resistance test vector host cell of resistance test vector viral particles which can efficiently infect human target cells. Resistance test vectors encoding all HIV genes with the exception of env were used to transfect a packaging host cell (once transfected the host cell is referred to as a fitness test vector host cell). The packaging expression vector which encodes the amphotrophic MuLV 4070A env gene product is used with the resistance test vector to enable production in the resistance test vector host cell of infectious pseudotyped resistance test vector viral particles.
Drug resistance tests performed with resistance test vectors were carried out using packaging host and target host cells consisting of the human embryonic kidney cell line 293. See U.S. Pat. No. 5,837,464.
Resistance tests were carried out with resistance test vectors using two host cell types. Resistance test vector viral particles were produced by a first host cell (the resistance test vector host cell) that was prepared by transfecting a packaging host cell with the resistance test vector and the packaging expression vector. The resistance test vector viral particles were then used to infect a second host cell (the target host cell) in which the expression of the indicator gene is measured.
The resistance test vectors containing a functional luciferase gene cassette were constructed as described above and host cells were transfected with the resistance test vector DNA. […]
In the case of `CC(C)CN(C[C@@H](O)[C@H](Cc1ccccc1)NC(=O)O[C@H]1CCOC1)S(=O)(=O)c1ccc(N)cc1` [AMP, amprenavir], the “phenotypic resistance score of the viral population” value is listed as “resistant”.
With `CC(C)(C)NC(=O)[C@@H]1CN(Cc2cccnc2)CCN1C[C@@H](O)C[C@@H](Cc1ccccc1)C(=O)N[C@H]1c2ccccc2C[C@H]1O` [IDV, indinavir], the “phenotypic resistance score of the viral population” value was “resistant”.
As for `Cc1cccc(C)c1OCC(=O)N[C@@H](Cc1ccccc1)[C@@H](O)C[C@H](Cc1ccccc1)NC(=O)[C@H](C(C)C)N1CCCNC1=O` [LPV, lopinavir], the entry is “resistant”; as for `Cc1c(O)cccc1C(=O)N[C@@H](CSc1ccccc1)[C@H](O)CN1C[C@H]2CCCC[C@H]2C[C@H]1C(=O)NC(C)(C)C` [NFV, nelfinavir], “resistant”.
The entry for `CC(C)c1nc(CN(C)C(=O)N[C@H](C(=O)N[C@@H](Cc2ccccc2)C[C@H](O)[C@H](Cc2ccccc2)NC(=O)OCc2cncs2)C(C)C)cs1` [RTV, ritonavir] is “resistant”; for `CC(C)(C)NC(=O)[C@@H]1C[C@@H]2CCCC[C@@H]2CN1C[C@@H](O)[C@H](Cc1ccccc1)NC(=O)[C@H](CC(N)=O)NC(=O)c1ccc2ccccc2n1` [SQV, saquinavir] it is “resistant”.
